# Values joined by “and” are separate entries in the source; they are usually repeats but may differ in a detail not shown here. Identical values can stand only once.
# Experiments:
# S. mansoni TGR = target: T1, S. mansoni TGR (Schistosoma mansoni, UniProt Q962Y6); assay: S. mansoni TGR enzyme inhibition (DTNB reduction); format: biochemical; settings: 15 minutes pre-incubation
# T1 construct: made in house
# T1 sequence (Q962Y6 1-598): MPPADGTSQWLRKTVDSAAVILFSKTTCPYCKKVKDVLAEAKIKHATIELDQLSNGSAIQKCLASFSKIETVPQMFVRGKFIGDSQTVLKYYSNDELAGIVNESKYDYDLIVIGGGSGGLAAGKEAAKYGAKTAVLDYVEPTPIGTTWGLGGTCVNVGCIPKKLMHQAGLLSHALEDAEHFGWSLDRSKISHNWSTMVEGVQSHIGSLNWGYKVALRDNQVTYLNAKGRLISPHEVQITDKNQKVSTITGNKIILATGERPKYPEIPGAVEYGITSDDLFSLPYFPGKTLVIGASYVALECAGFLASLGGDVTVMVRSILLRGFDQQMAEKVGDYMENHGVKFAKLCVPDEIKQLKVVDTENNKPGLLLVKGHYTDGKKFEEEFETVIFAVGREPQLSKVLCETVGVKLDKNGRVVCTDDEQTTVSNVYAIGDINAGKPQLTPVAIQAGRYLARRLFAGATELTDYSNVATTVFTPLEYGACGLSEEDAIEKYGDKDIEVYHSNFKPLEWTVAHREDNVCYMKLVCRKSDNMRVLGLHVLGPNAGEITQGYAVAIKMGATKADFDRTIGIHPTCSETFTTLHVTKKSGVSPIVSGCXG
# Experimental: (§1) Recombinant TGR, human TrxR1, B. malayi (Bm)TrxR and human GR proteins were expressed and purified as described[20],[69],[79]. The codon optimized sequence for P. falciparum (PfTrxR, https://www.ncbi.nlm.nih.gov/protein/CAA60574.1/) with an N-terminal 6-His tag was synthesized and inserted into pET15b (GenScript) and expressed in BL21 (DE3) cells and purified as described for human GR[20]. TGR and TrxR enzyme inhibition assays were performed in triplicate at 25 °C as described[20] in 0.1 M potassium phosphate (pH 7.4), 10 mM EDTA, 100 µM NADPH and 0.01% Tween-20. […] The reaction was started with addition of an equal volume of DTNB (6 mM) and NADPH (100 µM) and the increase in A412 during the first 3 min was recorded. […] The reaction was preincubated for 15 min. Activity was initiated with the addition of 1 mM GSSG and 100 μM NADPH and initial rates of NADPH oxidation were monitored at 340 nm. The reactions were done in triplicate. The IC50 was calculated in GraphPad Prism.
# Human TrxR1 = target: T2, Human TrxR1 (Homo sapiens, UniProt Q16881); assay: Human TrxR1 enzyme inhibition (DTNB reduction); format: biochemical; settings: 15 minutes pre-incubation
# T2 construct: made in house
# T2 sequence (Q16881 1-499 isoform Q16881-5): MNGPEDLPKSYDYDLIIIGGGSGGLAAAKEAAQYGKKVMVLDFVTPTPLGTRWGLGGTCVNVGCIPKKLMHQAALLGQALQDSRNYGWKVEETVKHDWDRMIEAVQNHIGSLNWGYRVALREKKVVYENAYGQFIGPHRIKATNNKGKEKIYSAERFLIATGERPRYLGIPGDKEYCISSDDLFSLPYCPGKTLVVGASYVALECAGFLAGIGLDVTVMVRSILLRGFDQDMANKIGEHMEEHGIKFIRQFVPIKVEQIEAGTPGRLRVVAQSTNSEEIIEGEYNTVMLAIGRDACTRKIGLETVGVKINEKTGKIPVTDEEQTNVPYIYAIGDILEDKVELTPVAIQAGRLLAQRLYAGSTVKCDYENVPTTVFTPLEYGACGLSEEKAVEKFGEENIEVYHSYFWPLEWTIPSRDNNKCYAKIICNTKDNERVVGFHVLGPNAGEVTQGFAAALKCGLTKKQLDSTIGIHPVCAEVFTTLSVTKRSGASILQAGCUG
# Experimental: as §1
# Human GR = target: T3, Human GR (Homo sapiens, UniProt P00390); assay: Human GR enzyme inhibition (GSSG reduction, NADPH oxidation); format: biochemical
# T3 construct: made in house
# T3 sequence (P00390 44-522): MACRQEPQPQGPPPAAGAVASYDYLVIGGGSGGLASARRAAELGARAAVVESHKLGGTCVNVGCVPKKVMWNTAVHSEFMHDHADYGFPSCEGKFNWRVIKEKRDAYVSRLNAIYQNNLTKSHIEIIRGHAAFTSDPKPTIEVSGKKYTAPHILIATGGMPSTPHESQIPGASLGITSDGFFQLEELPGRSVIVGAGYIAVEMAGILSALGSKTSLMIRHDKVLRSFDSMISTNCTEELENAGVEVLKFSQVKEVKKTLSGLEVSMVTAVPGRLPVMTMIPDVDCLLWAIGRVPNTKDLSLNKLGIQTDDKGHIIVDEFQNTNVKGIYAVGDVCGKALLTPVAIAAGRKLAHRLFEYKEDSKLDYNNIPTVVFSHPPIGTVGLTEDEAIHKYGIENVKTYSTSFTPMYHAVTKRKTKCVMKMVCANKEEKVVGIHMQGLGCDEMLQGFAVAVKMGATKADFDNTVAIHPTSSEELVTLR
# Experimental: Recombinant TGR, human TrxR1, B. malayi (Bm)TrxR and human GR proteins were expressed and purified as described[20],[69],[79]. The codon optimized sequence for P. falciparum (PfTrxR, https://www.ncbi.nlm.nih.gov/protein/CAA60574.1/) with an N-terminal 6-His tag was synthesized and inserted into pET15b (GenScript) and expressed in BL21 (DE3) cells and purified as described for human GR[20]. TGR and TrxR enzyme inhibition assays were performed in triplicate at 25 °C as described[20] in 0.1 M potassium phosphate (pH 7.4), 10 mM EDTA, 100 µM NADPH and 0.01% Tween-20. TGR, human TrxR1 and BmTrxR (all at 4 nM) and PfTrxR (50 nM) were preincubated with the compounds for 15 min. The reaction was started with addition of an equal volume of DTNB (6 mM) and NADPH (100 µM) and the increase in A412 during the first 3 min was recorded. […] […] Activity was initiated with the addition of 1 mM GSSG and 100 μM NADPH and initial rates of NADPH oxidation were monitored at 340 nm. The reactions were done in triplicate. The IC50 was calculated in GraphPad Prism.
# [1] = test system: TGR in newly transformed schistosomula (NTS); assay: TGR inhibition in NTS with TRFS-Green fluorescent probe;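 further: untreated reference is NTS exposed to TRFS-Green probe alone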; format: cell-based, S. mansoni; settings: NTS
# Experimental: TGR inhibition in NTS was assessed using a fluorescent probe TRFS-Green (Medchemexpress)[43]. NTS prepared as previously described and cultured in M199 supplemented with 5.5 mM D-glucose, penicillin-streptomycin and 5% heat inactivated fetal bovine serum were incubated at 37 °C in a clear bottom flat well plate in a 5% CO2 incubator overnight. […] NTS were further treated with TRFS-Green (10 µM) for additional 4 h and rinsed with M199 medium to remove residual TRFS-Green. Fluorescence images were obtained using Keyence BZ-X800. The quantification of fluorescence intensity upon the uptake of TRFS-Green by NTS was performed by a fluorescent microplate imager (BioTek Cytation3) (excitation, 438 nm; emission, 538 nm) hourly for 5 h and after 24 h.
compound,measurement,setting,value
C[C@@H]1[C@H]2C[C@@H](C[C@H]1NC(=O)Cc1nc3ccccc3n1C1CCCCC1)C2(C)C [C10],TGR % inhibition,S. mansoni TGR; 1 µM,1.833%
same,TGR % inhibition,S. mansoni TGR; 5 µM,5.968%
same,TGR % inhibition,S. mansoni TGR; 15 µM,42.2698%
same,TGR % inhibition,S. mansoni TGR; 30 µM,76.1929%
same,TGR % inhibition,S. mansoni TGR; 66.7 µM,82.1691%
same,hsTrxR % inhibition,Human TrxR1; 1 µM,3.958%
same,hsTrxR % inhibition,Human TrxR1; 5 µM,29.0366%
same,hsTrxR % inhibition,Human TrxR1; 15 µM,63.1349%
same,hsTrxR % inhibition,Human TrxR1; 30 µM,85.1161%
same,hsTrxR % inhibition,Human TrxR1; 66.7 µM,92.1898%
same,hGR % inhibition,"Human GR; 15 minutes pre-incubation, 15 µM",-6.32%
same,hGR % inhibition,"Human GR; 15 minutes pre-incubation, 30 µM",-6.329%
same,hGR % inhibition,"Human GR; 15 minutes pre-incubation, 66.7 µM",1.247%
same,hGR % inhibition,"Human GR; 6 hours pre-incubation, 15 µM",-1.804%
same,hGR % inhibition,"Human GR; 6 hours pre-incubation, 30 µM",-1.476%
same,hGR % inhibition,"Human GR; 6 hours pre-incubation, 66.7 µM",-1.27%
C[C@@H]1[C@H]2C[C@@H](C[C@H]1NCc1nc3ccccc3n1C)C2(C)C [C12 (8VP51)],"TGR inhibition visualized by TRFS-Green, Average","[1]; 1hr, 5 µM",11939.5
same,"TGR inhibition visualized by TRFS-Green, single replicate","[1]; 1hr, 5 µM",11982 and 11897
same,"TGR inhibition visualized by TRFS-Green, Average","[1]; 1hr, 15 µM",10673
same,"TGR inhibition visualized by TRFS-Green, single replicate","[1]; 1hr, 15 µM",10612 and 10734
same,"TGR inhibition visualized by TRFS-Green, Average","[1]; 1hr, 30 µM",10618.5
same,"TGR inhibition visualized by TRFS-Green, single replicate","[1]; 1hr, 30 µM",10903 and 10334
same,"TGR inhibition visualized by TRFS-Green, Average","[1]; 2hr, 5 µM",23845.5
same,"TGR inhibition visualized by TRFS-Green, single replicate","[1]; 2hr, 5 µM",23846 and 23845
same,"TGR inhibition visualized by TRFS-Green, Average","[1]; 2hr, 15 µM",20564.5
same,"TGR inhibition visualized by TRFS-Green, single replicate","[1]; 2hr, 15 µM",20516 and 20613
same,"TGR inhibition visualized by TRFS-Green, Average","[1]; 2hr, 30 µM",19325.5
same,"TGR inhibition visualized by TRFS-Green, single replicate","[1]; 2hr, 30 µM",19387 and 19264
same,"TGR inhibition visualized by TRFS-Green, Average","[1]; 3hr, 5 µM",33943
same,"TGR inhibition visualized by TRFS-Green, single replicate","[1]; 3hr, 5 µM",33973 and 33913
same,"TGR inhibition visualized by TRFS-Green, Average","[1]; 3hr, 15 µM",30062
same,"TGR inhibition visualized by TRFS-Green, single replicate","[1]; 3hr, 15 µM",30013 and 30111
same,"TGR inhibition visualized by TRFS-Green, Average","[1]; 3hr, 30 µM",28073.5
same,"TGR inhibition visualized by TRFS-Green, single replicate","[1]; 3hr, 30 µM",28013 and 28134
same,"TGR inhibition visualized by TRFS-Green, Average","[1]; 4hr, 5 µM",35461
same,"TGR inhibition visualized by TRFS-Green, single replicate","[1]; 4hr, 5 µM",35481 and 35441
same,"TGR inhibition visualized by TRFS-Green, Average","[1]; 4hr, 15 µM",33991.5
same,"TGR inhibition visualized by TRFS-Green, single replicate","[1]; 4hr, 15 µM",33999 and 33984
same,"TGR inhibition visualized by TRFS-Green, Average","[1]; 4hr, 30 µM",32914
same,"TGR inhibition visualized by TRFS-Green, single replicate","[1]; 4hr, 30 µM",32993 and 32835
same,"TGR inhibition visualized by TRFS-Green, Average","[1]; 5hr, 5 µM",41567.5
same,"TGR inhibition visualized by TRFS-Green, single replicate","[1]; 5hr, 5 µM",41048 and 42087
same,"TGR inhibition visualized by TRFS-Green, Average","[1]; 5hr, 15 µM",38445
same,"TGR inhibition visualized by TRFS-Green, single replicate","[1]; 5hr, 15 µM",39026 and 37864
same,"TGR inhibition visualized by TRFS-Green, Average","[1]; 5hr, 30 µM",33178.5
same,"TGR inhibition visualized by TRFS-Green, single replicate","[1]; 5hr, 30 µM",33374 and 32983
same,"TGR inhibition visualized by TRFS-Green, Average","[1]; 24hr, 5 µM",78091
same,"TGR inhibition visualized by TRFS-Green, single replicate","[1]; 24hr, 5 µM",78082 and 78100
same,"TGR inhibition visualized by TRFS-Green, Average","[1]; 24hr, 15 µM",70233
same,"TGR inhibition visualized by TRFS-Green, single replicate","[1]; 24hr, 15 µM",70452 and 70014
same,"TGR inhibition visualized by TRFS-Green, Average","[1]; 24hr, 30 µM",60492.5
same,"TGR inhibition visualized by TRFS-Green, single replicate","[1]; 24hr, 30 µM",60864 and 60121
